According to PubChem BioAssay (NCI):
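These data come from cells grown in 96-well plates and exposed to compound for 48 hours at five concentrations. At the GI50, growth is halved. Definition used: TGI = concentration required for complete inhibition of growth.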

Experiments:
Assay in all cases: inhibition of tumour cell growth, NCI panel, 48 h
[1] = tested on: A498 renal
[2] = tested on: ACHN renal
[3] = tested on: COLO 205 colon
[4] = tested on: HL-60(TB) leukemia
[5] = tested on: HS 578T breast
[6] = tested on: OVCAR-3 ovarian
[7] = tested on: OVCAR-8 ovarian
[8] = tested on: RPMI-8226 leukemia
[9] = tested on: SF-539 CNS
[10] = tested on: UACC-257 melanoma

Compound: CCOC(=O)CSc1nc(N)c2c(-c3ccccc3)c3c(nc2n1)CCCC3
- TGI [1]: > 100 µM
- TGI [2]: > 100 µM
- TGI [3]: > 100 µM
- TGI [4]: > 100 µM
- TGI [5]: > 100 µM
- TGI [6]: > 100 µM
- TGI [7]: > 100 µM
- TGI [8]: > 100 µM
- TGI [9]: > 100 µM
- TGI [10]: > 100 µM

Compound: CC(=O)Nc1nc(Cl)cc(NCC2(CO)CCC2)n1
- TGI [1]: > 100 µM
- TGI [2]: > 100 µM
- TGI [3]: > 100 µM
- TGI [4]: > 100 µM
- TGI [5]: > 100 µM
- TGI [6]: > 100 µM
- TGI [7]: > 100 µM
- TGI [8]: > 100 µM
- TGI [10]: > 100 µM

Compound: Cn1c2ccccc2c2ccc3c(c21)C(=O)c1ccc2c4ccccc4n(C)c2c1C3=O
- TGI [1]: > 100 µM
- TGI [2]: > 100 µM
- TGI [3]: > 100 µM
- TGI [4]: > 100 µM
- TGI [5]: > 100 µM
- TGI [6]: > 100 µM
- TGI [7]: > 100 µM
- TGI [8]: > 100 µM
- TGI [9]: > 100 µM
- TGI [10]: > 100 µM

Compound: Cc1c(C)n(-c2ccccc2)c2nc(S(C)=O)nc(S(C)=O)c12 (centres undefined)
- TGI [1]: 26.9 µM
- TGI [2]: 18.5 µM
- TGI [3]: 3.41 µM
- TGI [4]: 3.39 µM
- TGI [5]: 70.5 µM
- TGI [6]: 6.77 µM
- TGI [7]: 12.4 µM
- TGI [8]: 5.28 µM
- TGI [9]: 14.7 µM
- TGI [10]: 25.9 µM

Compound: O=c1c2c3c(sc2[nH]c(=S)n1-c1ccccc1)CCCc1ccc([N+](=O)[O-])cc1-3
- TGI [1]: > 100 µM
- TGI [2]: > 100 µM
- TGI [3]: > 100 µM
- TGI [4]: 50.8 µM
- TGI [5]: > 100 µM
- TGI [6]: > 100 µM
- TGI [7]: > 100 µM
- TGI [8]: 62.7 µM
- TGI [10]: > 100 µM

Compound: COC(=O)/C=C(/C=C1/C(C#N)=C(N)N(c2ccc(Cl)cc2)C1(C)/C(=C\C(=O)OC)C(=O)OC)C(=O)OC (centres undefined)
- TGI [1]: > 100 µM
- TGI [2]: 76.8 µM
- TGI [3]: 29.8 µM
- TGI [4]: > 100 µM
- TGI [5]: > 100 µM
- TGI [6]: 42.3 µM
- TGI [7]: 33.7 µM
- TGI [8]: > 100 µM
- TGI [9]: 32.7 µM
- TGI [10]: 35.8 µM

Compound: CN(C)c1ccc(/C=C(\NC(=O)c2ccccc2)C(=O)NC(CC(=O)O)C(=O)O)cc1 (centres undefined)
- TGI [1]: > 100 µM
- TGI [2]: > 100 µM
- TGI [3]: > 100 µM
- TGI [4]: > 100 µM
- TGI [5]: > 100 µM
- TGI [6]: > 100 µM
- TGI [7]: > 100 µM
- TGI [8]: > 100 µM
- TGI [9]: > 100 µM
- TGI [10]: > 100 µM

Compound: CC(C)Oc1cccc(N2C(n3ccnc3)=Nc3ccncc3S2(=O)=O)c1
- TGI [1]: 31.8 µM
- TGI [2]: 21.6 µM
- TGI [3]: 24.7 µM
- TGI [5]: 38.5 µM
- TGI [6]: 21.9 µM
- TGI [7]: 40.7 µM
- TGI [8]: 12.3 µM
- TGI [9]: 20.1 µM
- TGI [10]: 32 µM

Compound: Cc1ccccc1-c1nc2c(N)nc(N)nc2nc1N
- TGI [2]: > 100 µM
- TGI [3]: > 100 µM
- TGI [4]: > 100 µM
- TGI [5]: > 100 µM
- TGI [6]: > 100 µM
- TGI [7]: > 100 µM
- TGI [8]: > 100 µM
- TGI [9]: > 100 µM
- TGI [10]: > 100 µM

Compound: O=C(NCc1ccccc1)c1cc2ccccc2oc1=Nc1cccc(C(F)(F)F)c1
- TGI [1]: > 100 µM
- TGI [2]: > 100 µM
- TGI [3]: 90.2 µM
- TGI [4]: 49.9 µM
- TGI [5]: > 100 µM
- TGI [6]: > 100 µM
- TGI [7]: > 100 µM
- TGI [8]: > 100 µM
- TGI [10]: 84 µM

Compound: c1ccc(-c2c(-c3ccccc3)[n+](Cc3ccc4ccccc4c3)c(-c3ccc(-c4nc5ccccc5s4)cc3)n2Cc2ccc3ccccc3c2)cc1
- GI50 [1]: 0.156 µM
- TGI [1]: 0.542 µM
- GI50 [2]: 0.178 µM
- TGI [2]: 0.378 µM
- GI50 [4]: 0.149 µM
- TGI [4]: 0.471 µM
- GI50 [5]: 0.296 µM
- TGI [5]: 1.41 µM
- GI50 [6]: 0.0814 µM
- TGI [6]: 0.626 µM
- GI50 [7]: 0.151 µM
- TGI [7]: 1.12 µM
- GI50 [8]: 0.0625 µM
- TGI [8]: 0.426 µM
- GI50 [9]: 0.305 µM
- TGI [9]: 1.24 µM

Compound: NS(=O)(=O)c1nnc(NC(=O)N(c2ccccc2)c2ccccc2)s1
- TGI [3]: > 100 µM
- TGI [4]: 48.2 µM
- TGI [5]: 73 µM
- TGI [6]: 69.7 µM
- TGI [7]: 51.1 µM
- TGI [8]: 49.4 µM
- TGI [9]: 34.7 µM
- TGI [10]: > 100 µM

Compound: O=c1oc2ccc3ccccc3c2cc1-c1cn2ccsc2n1
- TGI [2]: 32.1 µM
- TGI [3]: 33.3 µM
- TGI [4]: 51.7 µM
- TGI [5]: > 100 µM
- TGI [6]: 43.8 µM
- TGI [7]: 41.2 µM
- TGI [8]: 46.2 µM
- TGI [9]: 51.2 µM
- TGI [10]: 66.1 µM

Compound: Cc1ccc(-c2cc(-c3ccco3)c(C#N)c(=S)[nH]2)cc1
- TGI [1]: > 100 µM
- TGI [2]: > 100 µM
- TGI [3]: > 100 µM
- TGI [4]: > 100 µM
- TGI [5]: > 100 µM
- TGI [6]: > 100 µM
- TGI [7]: > 100 µM
- TGI [8]: > 100 µM

Compound: O=C1C=CC2(O[C@H](c3ccccc3)[C@@H](c3ccccc3)O2)[C@H](Sc2ccccc2O)C1
- TGI [1]: 5.15 µM
- TGI [2]: 1.07 µM
- TGI [3]: 1.62 µM
- TGI [4]: 2.82 µM
- TGI [5]: 7.88 µM
- TGI [6]: 1.51 µM
- TGI [7]: 0.217 µM
- TGI [9]: 1.7 µM
- TGI [10]: 1.71 µM

Compound: OCc1cn(Cc2ccccc2)c2ccccc12
- TGI [2]: > 58.2 µM
- TGI [3]: 13.6 µM
- TGI [4]: > 83.2 µM
- TGI [5]: 30.4 µM
- TGI [6]: 6.96 µM
- TGI [7]: 46.9 µM
- TGI [8]: 12.1 µM
- TGI [9]: > 69 µM

Compound: CC1=CC2C3(C)C(C)(C(C)=CP3(=O)c3c(C(C)C)cc(C(C)C)cc3C(C)C)C1P2(=O)c1c(C(C)C)cc(C(C)C)cc1C(C)C (centres undefined)
- TGI [1]: 6.26 µM
- TGI [2]: 8.96 µM
- TGI [3]: 3.3 µM
- TGI [4]: 3.85 µM
- TGI [5]: 6.25 µM
- TGI [6]: 6.43 µM
- TGI [7]: 16.6 µM
- TGI [8]: 3.02 µM
- TGI [10]: 3.34 µM

Compound: Cc1nnc2n(c1=O)CCCN2C
- TGI [2]: > 100 µM
- TGI [3]: > 100 µM
- TGI [4]: > 100 µM
- TGI [5]: > 100 µM
- TGI [6]: > 100 µM
- TGI [7]: > 100 µM
- TGI [8]: > 100 µM
- TGI [9]: > 100 µM

Compound: COC(=O)CNC(=O)C(CSC(=O)OCC1c2ccccc2-c2ccccc21)NC(=O)CCC(NC(=O)OCC1c2ccccc2-c2ccccc21)C(=O)OC (centres undefined)
- TGI [2]: > 100 µM
- TGI [3]: 78.9 µM
- TGI [4]: 46.8 µM
- TGI [5]: > 100 µM
- TGI [6]: 32 µM
- TGI [7]: 30.4 µM
- TGI [8]: 90.1 µM
- TGI [9]: 37.8 µM
- TGI [10]: > 100 µM

Compound: Cn1c2ccccc2n2c3ncccc3c(=O)c(C#N)c12
- TGI [1]: 34 µM
- TGI [2]: 11.7 µM
- TGI [4]: > 100 µM
- TGI [5]: > 94.1 µM
- TGI [6]: > 100 µM
- TGI [7]: 23.5 µM
- TGI [8]: > 100 µM
- TGI [10]: > 100 µM

Compound: COc1ccc2c(c1)c1c(n2CCN2CCCCC2)-c2cccc(OC)c2CC1
- TGI [1]: 49.2 µM
- TGI [2]: 43 µM
- TGI [3]: 39 µM
- TGI [5]: 42.4 µM
- TGI [6]: 34.5 µM
- TGI [7]: 32.3 µM
- TGI [8]: 35.5 µM
- TGI [10]: 38 µM

Compound: COc1ccc(N=Nc2c(-c3c(OC)cc4occc4c3OC)[nH]c(=O)c(C#N)c2C)cc1
- TGI [2]: > 100 µM
- TGI [3]: > 100 µM
- TGI [4]: > 100 µM
- TGI [5]: > 100 µM
- TGI [6]: > 100 µM
- TGI [7]: > 100 µM
- TGI [8]: > 100 µM
- TGI [9]: > 100 µM
- TGI [10]: > 100 µM
